The text below walks through data of ChEMBL document CHEMBL3414535, “Identification and optimization of Escherichia coli GlmU inhibitors: an in silico approach with validation thereof” (Eur J Med Chem, 2015).

A word on the inhibition: it is the percentage by which the read-out fell short of the control. Usually IC50 stands for the concentration that inhibits the measured activity by half.

The target of one assay is Bifunctional protein GlmU (Escherichia coli (strain K12)) (UniProt P0ACC7). The experiment in a line: Inhibition of Escherichia coli GlmU acetyltransferase activity assessed as coenzyme A production using acetyl CoA substrate at 100 uM.
Bifunctional protein GlmU (Escherichia coli (strain K12)), sequence (P0ACC7 whole entry, looked up): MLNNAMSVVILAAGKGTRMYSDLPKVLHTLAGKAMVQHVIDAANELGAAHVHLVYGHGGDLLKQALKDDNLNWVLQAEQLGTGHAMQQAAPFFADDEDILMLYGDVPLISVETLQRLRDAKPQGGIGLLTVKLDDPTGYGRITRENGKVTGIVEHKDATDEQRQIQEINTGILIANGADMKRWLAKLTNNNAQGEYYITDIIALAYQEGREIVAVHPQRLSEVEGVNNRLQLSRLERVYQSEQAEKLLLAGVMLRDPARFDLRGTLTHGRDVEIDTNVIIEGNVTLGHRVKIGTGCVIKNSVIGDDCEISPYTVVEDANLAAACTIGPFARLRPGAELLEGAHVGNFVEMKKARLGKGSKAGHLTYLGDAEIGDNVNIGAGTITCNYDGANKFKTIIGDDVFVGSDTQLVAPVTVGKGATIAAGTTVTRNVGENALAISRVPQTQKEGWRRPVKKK
With `COc1ccc(S(=O)(=O)C(CNC(=O)c2ccccc2)c2ccco2)cc1` (stereo not given), the inhibition is 17.1%.
For the molecule `COc1ccc(-c2cnc(C)o2)cc1S(=O)(=O)Nc1cccc(F)c1`, the inhibition stood at 36%.
Consider `O=C(CN1c2cccc3cccc(c23)S1(=O)=O)Nc1ccc(F)c(F)c1`, for which the inhibition was 28.4%.
In the case of `CCn1c(C)c(-c2nc(C3CC3)no2)c(S(=O)(=O)NCC2CCCO2)c1C` (stereo not given), the inhibition worked out at 21.1%.
Take `CN1C(C(=O)NCC2CCCO2)=CC(c2ccco2)=NS1(=O)=O` (stereo not given): the inhibition is 28.6%.
`CCOC(=O)c1c(S(=O)(=O)NCC(=O)Nc2cccnc2)c(C)n(C)c1C`: the inhibition was 16.2%.
Take `Cc1cc(SCC(=O)c2ccc(O)cc2O)ncn1`: the inhibition turned out to be 20.9%.
For `O=C(Nc1nonc1-c1ccccc1)C1COc2ccccc2O1` (stereo not given), the inhibition is 17.5%.
Consider `COc1ccccc1NS(=O)(=O)c1cc(-c2cnc(C3CC3)o2)ccc1C`, for which the inhibition was found to be 21.1%.
For the molecule `CCc1ccccc1NS(=O)(=O)c1ccc(-c2ccc(=O)[nH]n2)o1`, the inhibition is 9.82%.
Take `CSc1cccc(NS(=O)(=O)c2cc3c(cc2Cl)NC(=O)CO3)c1`: the inhibition was 68.7%.
On the same count and under the same terms, for `O=S(=O)(c1ccccc1)c1nc(-c2ccsc2)oc1NCC1CCCO1` (stereo not given) the value was 13.3%; for `O=S(=O)(Nc1cc(F)cc(F)c1)c1c[nH]c2ncccc12`, 14.8%; for `CC(C)C(=O)N1CCCc2cc(NS(=O)(=O)c3cccc(F)c3)ccc21`, 82.9%.
On to `COC(=O)c1cc(S(=O)(=O)Nc2cccc(Cl)c2C)c[nH]1`, for which the inhibition turned out to be 3.74%.
In the case of `COC(=O)c1cc(S(=O)(=O)Nc2cccc(SC)c2)c[nH]1`, the inhibition turned out to be 5.65%.
For the molecule `COC(=O)c1cc(S(=O)(=O)Nc2ccc(C)cc2Cl)c[nH]1`, the inhibition came out at 5.22%.
Consider `CCn1cc(C(=O)NCc2ccco2)c(S(=O)(=O)N2CCSCC2)n1`, for which the inhibition was 22.1%.
Turning to `COC(=O)C1CN(C(=O)C(C)Oc2ccccc2F)c2ccccc2O1` (stereo not given), the inhibition is 25.5%.
Regarding `Cc1ccc(S(=O)(=O)n2ccn(C(=O)C(C)Oc3ccccc3)c2=O)cc1` (stereo not given), the inhibition is 11.1%.
On the same count and under the same terms, the same measure for `CCOC(=O)c1c(C)[nH]c(C)c1S(=O)(=O)NCC(=O)Nc1cccnc1`: 16.5%; for `O=S(=O)(NCc1ccccn1)c1ccc(-c2ccno2)o1`: 30.6%; for `CCOC(=O)c1cc(S(=O)(=O)N(C)CC(=O)Nc2ccc(F)cc2)cn1C`: 11.9%.
For `Cc1cc(S(=O)(=O)C(CNC(=O)c2ccco2)c2ccco2)ccc1F` (stereo not given), the inhibition was determined as 12.6%.
Turning to `CCOc1ccc(OCC)c(NS(=O)(=O)c2ccc3c(c2)N(C)CCO3)c1`, the inhibition was found to be 29.2%.
Turning to `CC(=O)Cc1nsc(NC(=O)C2(C)Cc3ccccc3C(=O)O2)n1` (stereo not given), the inhibition was determined as 24.6%.
Regarding `c1cncc(CNc2nnc(-c3nc(C4CC4)no3)c3ccccc23)c1`, the inhibition stood at 18.5%.
Regarding `O=C(CSC1=NS(=O)(=O)c2ccccc2N1)OCc1ccccc1`, the inhibition is 18.4%.
Regarding `Cc1ccc(C)c(NS(=O)(=O)c2ccc(-c3nnc(C(C)C)o3)o2)c1`, the inhibition is 34.4%.
For `O=C(Nc1nc(S(=O)(=O)Cc2ccccc2)ns1)c1ccccc1`, the inhibition stood at 15.8%.
As for `COc1ccc(C2SCC(=O)Nc3[nH]nc(C)c32)c(OC)c1OC` (stereo not given), the inhibition stood at 20.5%.
Regarding `CCOC(=O)c1cc(S(=O)(=O)N2CCCC2C(=O)NC(C)C)cn1C` (stereo not given), the inhibition was found to be 10.3%.
On to `Cc1nn(-c2ccccc2)c(O)c1/C=N/NC(=O)C(O)c1ccccc1` (stereo not given), for which the inhibition was 28.1%.
With `CCOC(=O)COc1ccccc1/C=C1\N=C(SCC)SC1=O`, the inhibition is 45.3%.
Turning to `O=S(=O)(c1ccccc1)c1nc(-c2ccco2)oc1NCCCn1ccnc1`, the inhibition came to 20.7%.
On to `CCOC(=O)c1cc(S(=O)(=O)N(C)CC(=O)Nc2ccc(C)cn2)cn1C`, for which the inhibition worked out at 14.3%.
Turning to `CCCN1C=NS(=O)(=O)c2cc(C(=O)Nc3ccccc3F)ccc21`, the inhibition came out at 20.1%.
As to `COc1ccc(OC)c(N(CC(=O)O)S(=O)(=O)c2ccccc2)c1`, the inhibition is 42%.
For the molecule `O=S(=O)(c1cc(-c2nnc(C3CCCC3)o2)co1)N1CCc2ccccc2C1`, the inhibition was 32.3%.
`O=C(CN1c2ccc(F)cc2-c2ccccc2S1(=O)=O)Nc1cccnc1`: the inhibition was determined as 19.8%.
On to `CCOC(=O)CC1(c2ccccc2)SC(NC(C)=O)=NN1C(C)=O` (stereo not given), for which the inhibition stood at 9.41%.
Take `O=C(NCCN1CCCC1)C1=C2CCCN2c2ccc(F)cc2S1(=O)=O`: the inhibition was 25.1%.
Regarding `COc1ccc(-c2cnc(C)o2)cc1S(=O)(=O)Nc1cccc(Cl)c1`, the inhibition is 40.6%.
The same measure, in the same setting: the same measure for `CCOC(=O)c1cc(S(=O)(=O)N2CCCC2C(=O)N2CCCC2)cn1C` (stereo not given): 7.99%; for `O=S(=O)(Nc1ccc(F)c(F)c1)c1c[nH]c2ncccc12`: 25.9%.
Turning to `Cc1nc2c(c(SCC(=O)c3ccc(O)cc3O)n1)CCC2`, the inhibition was 25.9%.
Consider `COc1cc(NS(=O)(=O)c2c[nH]c3ncccc23)cc(OC)c1`, for which the inhibition was found to be 19.3%.
Same read-out and setting: the same measure for `COCCNC(=O)c1ccccc1NS(=O)(=O)c1ccc2c(c1)OCCO2`: 12%.
Regarding `O=S(=O)(Nc1cc(F)ccc1F)c1c[nH]c2ncccc12`, the inhibition was 16.8%.
Consider `COc1ccc(Cl)cc1N(CC(=O)O)S(=O)(=O)c1ccccc1`, for which the inhibition turned out to be 45.1%.
As to `CCOC(=O)c1c(S(=O)(=O)NCC(=O)Nc2ccccc2)c(C)n(C)c1C`, the inhibition was 15.2%.
With `O=S(=O)(NCc1cccnc1)c1ccc(-c2ccno2)o1`, the inhibition was 44.7%.
The same measure, in the same setting: for `COc1cc(Nc2c(-c3ccccc3)c(=O)c2=O)cc(OC)c1` the value was 40%; for `CC(Sc1nnc(O)nc1O)C(=O)OCc1ccccc1` (stereo not given), 28.6%.
With `CCOc1ccc(OCC)c(Nc2c(-c3ccccc3)c(=O)c2=O)c1`, the inhibition is 16.8%.
`CCOC(=O)c1cc(S(=O)(=O)N2CCCC2C(=O)NC(C)(C)CC)cn1C` (stereo not given): the inhibition was determined as 30.8%.

The target of a further assay is Bifunctional protein GlmU (Escherichia coli (strain K12), UniProt P0ACC7). The experiment in a line: Inhibition of Escherichia coli GlmU acetyltransferase activity assessed as coenzyme A production using acetyl CoA substrate.
Bifunctional protein GlmU, sequence (P0ACC7 whole entry): as the sequence (P0ACC7 whole entry, looked up) above
As to `COc1cc(OC)c(S(=O)(=O)N(c2ccc(C)cc2)c2ccc(C)cc2)cc1NC(=O)CCC(=O)O`, the IC50 is 40 nM.
Same read-out and setting: the same measure for `COc1cc(OC)c(S(=O)(=O)N2c3ccccc3CC[C@H]2C)cc1NC(=O)COC(C)=O`: 2000 nM; for `COc1cc(OC)c(S(=O)(=O)N2c3ccccc3CC[C@@H]2C)cc1NC(=O)CCc1nn[nH]n1`: 430 nM.
`COc1cc(OC)c(S(=O)(=O)NCc2ccccc2-c2ccc(C(=O)O)cc2)cc1NC(=O)CCC(=O)O`: the 50% inhibitory concentration (IC50) worked out at 900 nM.
Still for that read-out and setting: the same measure for `COc1cc(OC)c(S(=O)(=O)N2c3ccccc3CC[C@@H]2C)cc1NC(=O)COCC(=O)O`: 200 nM.
For `COc1cc(OC)c(S(=O)(=O)NCc2ccc3c(c2)OCO3)cc1NC(C)=O`, the IC50 was found to be 200000 nM.
In the case of `COc1cc(OC)c(S(=O)(=O)N2c3ccccc3Oc3ccccc32)cc1NC(=O)Cc1ccncc1`, the IC50 worked out at 60 nM.
On the same count and under the same terms, the same measure for `COc1cc(OC)c(S(=O)(=O)N(c2ccccc2)c2ccccc2)cc1NC(=O)CCC(=O)O`: 40 nM.
As for `COc1cc(OC)c(S(=O)(=O)N2c3ccccc3Oc3ccccc32)cc1NC(=O)CCC(=O)O`, the IC50 turned out to be 10 nM.
Regarding `COc1cc(OC)c(S(=O)(=O)NCc2ccccc2N2CCCCC2)cc1NC(=O)CCC(=O)O`, the IC50 came to 3000 nM.
Take `COc1cc(OC)c(S(=O)(=O)NCc2ccccc2N2CCCCC2)cc1NC(C)=O`: the IC50 was 200000 nM.
As to `COc1cc(OC)c(S(=O)(=O)N2CCCC[C@@H]2C)cc1NC(C)=O`, the IC50 worked out at 130000 nM.
With `COc1cc(OC)c(S(=O)(=O)N2c3ccccc3Oc3ccccc32)cc1NC(=O)/C=C/C(=O)O`, the IC50 amounted to 10 nM.
For the molecule `COc1cc(OC)c(S(=O)(=O)N(c2ccccc2)c2ccc(N)cc2)cc1NC(=O)CCC(=O)O`, the IC50 stood at 20 nM.
In the case of `COc1cc(OC)c(S(=O)(=O)N2c3ccccc3CC[C@@H]2C)cc1NC(=O)c1ccccc1`, the IC50 is 200000 nM.
As for `COc1cc(OC)c(S(=O)(=O)N2c3ccccc3CC[C@H]2C)cc1NC(=S)NCC(=O)O`, the IC50 was 500 nM.
Consider `COc1cc(OC)c(S(=O)(=O)N2c3ccccc3CC[C@@H]2C)cc1NC(=O)Cc1ccnc(C#N)c1`, for which the IC50 is 680 nM.
For `COc1cc(OC)c(S(=O)(=O)NCc2ccccc2N2CCC(CO)CC2)cc1NC(C)=O`, the IC50 worked out at 40000 nM.
With `COc1cc(OC)c(S(=O)(=O)N2c3ccccc3CC[C@@H]2C)cc1NC(=O)CCC(=O)O`, the IC50 amounted to 90 nM.
For the molecule `COc1cc(OC)c(S(=O)(=O)N(c2ccccc2)C(C)C)cc1NC(C)=O`, the IC50 amounted to 2000 nM.
Consider `COc1cc(O)c(S(=O)(=O)N2c3ccccc3CC[C@H]2C)cc1NC(=O)[C@H]1[C@H](C)[C@H]1C(=O)O`, for which the IC50 is 480 nM.
Regarding `COc1cc(OC)c(S(=O)(=O)N2c3ccccc3CC[C@H]2C)cc1NC(C)=O`, the IC50 is 1500 nM.
Regarding `COc1cc(OC)c(S(=O)(=O)N2c3ccccc3CC[C@@H]2C)cc1NC(=O)/C=C/C(=O)O`, the IC50 was 500 nM.
On the same count and under the same terms, the same measure for `COc1cc(OC)c(S(=O)(=O)NCc2ccccc2N2CCC(CO)CC2)cc1NC(=O)CCC(=O)O`: 3000 nM; for `COc1ccccc1CNS(=O)(=O)c1cc(NC(C)=O)c(OC)cc1OC`: 10000 nM; for `COc1cc(OC)c(S(=O)(=O)Nc2cccc(C)c2)cc1NC(C)=O`: 17000 nM.
Turning to `COc1cc(OC)c(S(=O)(=O)NCc2ccccc2Br)cc1NC(C)=O`, the IC50 was found to be 4000 nM.
Consider `COc1cc(OC)c(S(=O)(=O)Nc2ccc(F)cc2)cc1NC(C)=O`, for which the IC50 was determined as 25000 nM.
Consider `COc1cc(OC)c(S(=O)(=O)N2c3ccccc3Sc3ccccc32)cc1NC(=O)CCC(=O)O`, for which the IC50 is 90 nM.
Regarding `COc1cc(OC)c(S(=O)(=O)N2c3ccccc3CC[C@@H]2C)cc1NC(=O)Cc1ccnc(F)c1`, the IC50 amounted to 800 nM.
As to `COc1cc(OC)c(S(=O)(=O)N2c3ccccc3CC[C@H]2C)cc1NC(=O)CSCC(=O)O`, the IC50 stood at 100 nM.
Still for that read-out and setting: for `CCN(c1ccccc1C)S(=O)(=O)c1cc(NC(C)=O)c(OC)cc1OC` the value was 15000 nM.
Take `COc1cc(OC)c(S(=O)(=O)N2c3ccccc3CC[C@@H]2C)cc1NC(=O)[C@@H]1[C@@H](C)[C@H]1C(=O)O`: the IC50 worked out at 400 nM.
The same measure, in the same setting: the same measure for `COc1cc(OC)c(S(=O)(=O)N2c3ccccc3CC[C@@H]2C)cc1NC(=O)COc1ccc(C(C)=O)cc1`: 200000 nM.
